Measured values reported in patent publication US9718825B2, “N-(4-(azaindazol-6-yl)-phenyl)-sulfonamides and their use as pharmaceuticals” (priority 2013, dated 2017).

biological target: recombinant human SGK-1 enzyme (Homo sapiens, UniProt O00141); test: Enzymatic activity assay: SGK-1 substrate peptide phosphorylation (Caliper lab-chip mobility shift); assay type: biochemical; conditions: peptide substrate 1 μM, ATP 10 μM, 60 min at 37° C., read-out: IC50 values for inhibition of SGK-1 enzymatic activity
Sequence (O00141 whole entry, looked up): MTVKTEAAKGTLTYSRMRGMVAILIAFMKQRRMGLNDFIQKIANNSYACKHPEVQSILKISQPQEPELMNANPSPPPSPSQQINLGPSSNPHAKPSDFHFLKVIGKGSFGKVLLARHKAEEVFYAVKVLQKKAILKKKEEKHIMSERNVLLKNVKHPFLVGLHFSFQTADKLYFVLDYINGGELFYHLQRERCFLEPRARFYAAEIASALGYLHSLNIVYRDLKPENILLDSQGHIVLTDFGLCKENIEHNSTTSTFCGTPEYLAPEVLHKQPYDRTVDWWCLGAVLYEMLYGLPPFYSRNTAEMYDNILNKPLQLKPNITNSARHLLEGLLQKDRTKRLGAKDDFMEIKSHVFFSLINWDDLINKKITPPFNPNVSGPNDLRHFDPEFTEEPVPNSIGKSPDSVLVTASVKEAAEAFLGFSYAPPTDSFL
Protocol: In one of the cellular assays, the SGK-1 dependent phosphorylation of glycogen synthase kinase 3beta (GSK3beta) in U2OS cells was measured, in another one, a functional electrophysiological assay, the SGK-1 dependent activation of epithelial Na^+ channel (ENaC) currents in A6 cell monolayers, and in another one chondrocyte hypertrophic differentiation in mouse chondrogenic ATDC5 cells.
A) Enzymatic Activity Assay
For the determination of the compound dose response, a 10 mM DMSO stock solution was diluted and tested in a ten-point, three-fold dilution series run in duplicate beginning at 30 μM final concentration. Data were analyzed using a four-parameter curve fit with a fixed minimum and maximum experimentally defined as the average positive and negative controls on each plate.

| Structure (SMILES) | IC50 [nM] |
| --- | --- |
| Cc1ccc(F)c(S(=O)(=O)Nc2ccc(-c3nc(O)c4cn[nH]c4n3)cc2)c1 [Example 108] | 25 |
| COc1ccc(C#N)c(S(=O)(=O)Nc2ccc(-c3nc(OC4CCC(O)CC4)c4c(C)n[nH]c4n3)cc2)c1 (stereo not shown) [Example 130] | 13 |
| O=S(=O)(Nc1ccc(-c2nc(OCC(F)(F)F)c3cn[nH]c3n2)cc1)c1cc(Cl)ccc1Cl [Example 161] | 19 |
| O=S(=O)(Nc1ccc(-c2nc(C3CC3)c3cn[nH]c3n2)cc1)c1ccccc1F [Example 206] | 1100 |
| O=S(=O)(Nc1ccc(-c2nc(OC3CCNCC3(F)F)c3cn[nH]c3n2)cc1)c1cc(Cl)ccc1Cl (stereo not shown) [Example 247] | 6.5 |
| CC(C)COc1nc(-c2ccc(NS(=O)(=O)c3ccc(F)cc3Cl)cc2)nc2[nH]nc(N)c12 [Example 318] | 950 |
| CC(C)COc1nc(-c2ccc(NS(=O)(=O)c3cc(F)c(F)cc3Cl)cc2)nc2[nH]nc(N)c12 [Example 325] | 1100 |
| Cc1n[nH]c2nc(-c3ccc(NS(=O)(=O)c4ccccc4F)cc3)nc(OC3CCN(C(C)C)CC3)c12 [Example 352] | 11 |
| Cc1n[nH]c2nc(-c3ccc(NS(=O)(=O)c4cc(Cl)ccc4C#N)cc3)nc(OCC(C)C)c12 [Example 354] | 110 |
| Nc1n[nH]c2nc(-c3ccc(NS(=O)(=O)c4cc(Cl)ccc4Cl)cc3)nc(OCC3CC3)c12 [Example 355] | 13 |
| Cc1n[nH]c2nc(-c3ccc(NS(=O)(=O)c4ccccc4F)cc3)nc(OCC(CO)CO)c12 [Example 360] | 110 |
| Cc1ccc(F)c(S(=O)(=O)Nc2ccc(-c3nc(OCC(F)(F)CN)c4c(C)n[nH]c4n3)cc2)c1 [Example 364] | 6.5 |
| Cc1ccc(C#N)c(S(=O)(=O)Nc2ccc(-c3nc(OCC(CO)CO)c4c(C)n[nH]c4n3)cc2)c1 [Example 371] | 3.9 |
| CCN1CCC(Oc2nc(-c3ccc(NS(=O)(=O)c4ccccc4F)cc3)nc3[nH]nc(C)c23)CC1 [Example 402] | 13 |
| COCCN1CCC(Oc2nc(-c3ccc(NS(=O)(=O)c4cc(F)ccc4F)cc3)nc3[nH]nc(C)c23)CC1 [Example 407] | 11 |
| Cc1nc(-c2ccc(NS(=O)(=O)c3cccc(C#N)c3)cc2)nc2[nH]nc(N)c12 [Example 471] | 97 |
| COCCc1nc(-c2ccc(NS(=O)(=O)c3ccc(F)cc3Cl)cc2)nc2[nH]nc(N)c12 [Example 507] | 1500 |
| COCCc1nc(-c2ccc(NS(=O)(=O)c3cc(F)c(F)cc3Cl)cc2)nc2[nH]nc(N)c12 [Example 510] | 1500 |
| COCCc1nc(-c2ccc(NS(=O)(=O)c3ccccc3F)cc2)nc2[nH]nc(N)c12 [Example 512] | 1500 |
| COCCc1nc(-c2ccc(NS(=O)(=O)c3cc(Cl)ccc3F)cc2)nc2[nH]nc(N)c12 [Example 525] | 25 |
| O=C(Nc1n[nH]c2nc(-c3ccc(NS(=O)(=O)c4cc(Cl)ccc4Cl)cc3)ncc12)c1cccc(Cl)c1Cl [Example 540] | 11 |
| Nc1n[nH]c2cc(-c3ccc(NS(=O)(=O)c4cc(F)cc(F)c4Cl)cc3)ncc12 [Example 557] | 96 |
| N#Cc1ccc(Cl)cc1S(=O)(=O)Nc1ccc(-c2cc3[nH]nc(N)c3c(C(F)(F)F)n2)cc1 [Example 570] | 2 |
| Nc1n[nH]c2cc(-c3ccc(NS(=O)(=O)c4cc(F)cc(F)c4Cl)cc3)nc(C(F)(F)F)c12 [Example 576] | 430 |
| Nc1n[nH]c2cc(-c3ccc(NS(=O)(=O)c4cccc(Cl)c4F)cc3)nc(C(F)(F)F)c12 [Example 578] | 430 |
| Cc1n[nH]c2cc(-c3ccc(NS(=O)(=O)c4cc(F)ccc4F)cc3)nc(OCC3CN(C(C)C)C3)c12 [Example 592] | 2 |

| Structure (SMILES) | IC50 [nM] |
| --- | --- |
| CCCOc1nc(-c2ccc(NS(=O)(=O)c3cc(F)c(F)cc3Cl)cc2)cc2[nH]nc(N)c12 [Example 605] | 23 |
| CCOc1nc(-c2ccc(NS(=O)(=O)c3cc(F)c(F)cc3F)cc2)cc2[nH]nc(N)c12 [Example 613] | 19 |
| CCOc1nc(-c2ccc(NS(=O)(=O)c3cc(F)c(F)cc3Cl)cc2)cc2[nH]nc(N)c12 [Example 614] | 97 |
| Cc1n[nH]c2cc(-c3ccc(NS(=O)(=O)c4cc(Cl)ccc4Cl)cc3)nc(OC3CC(C)(C)N(C)C(C)(C)C3)c12 [Example 620] | 3.9 |
| COc1ccc(Oc2nc(-c3ccc(NS(=O)(=O)c4cc(F)ccc4F)cc3)cc3[nH]nc(C)c23)cn1 [Example 622] | 37 |
| COc1ccc(Oc2nc(-c3ccc(NS(=O)(=O)c4ccccc4F)cc3)cc3[nH]nc(C)c23)cn1 [Example 624] | 37 |
| COc1ccc(Oc2nc(-c3ccc(NS(=O)(=O)c4cc(Cl)ccc4F)cc3)cc3[nH]nc(C)c23)cn1 [Example 634] | 23 |
| Cc1n[nH]c2cc(-c3ccc(NS(=O)(=O)c4cc(F)cc(F)c4Cl)cc3)nc(OC3CCN(C4CCC4)CC3)c12 [Example 638] | 11 |
| Cc1ccc(Cl)c(S(=O)(=O)Nc2ccc(-c3cc4[nH]nc(C)c4c(OC4CC(C)(C)NC(C)(C)C4)n3)cc2)c1 [Example 648] | 3.9 |
| COc1ccc(Cl)c(S(=O)(=O)Nc2ccc(-c3cc4[nH]nc(C)c4c(Oc4ccc(OC)nc4)n3)cc2)c1 [Example 651] | 25 |
| COc1ccc(F)c(S(=O)(=O)Nc2ccc(-c3cc4[nH]nc(C)c4c(Oc4ccc(OC)nc4)n3)cc2)c1 [Example 653] | 30 |
| COc1ccc(Oc2nc(-c3ccc(NS(=O)(=O)c4cc(C)ccc4F)cc3)cc3[nH]nc(C)c23)cn1 [Example 654] | 37 |
| CCCOc1nc(-c2ccc(NS(=O)(=O)c3cc(Cl)ccc3Cl)cc2)cc2[nH]nc(N)c12 [Example 664] | 13 |
| COc1cc(Oc2nc(-c3ccc(NS(=O)(=O)c4cc(Cl)ccc4F)cc3)cc3[nH]nc(C)c23)ccn1 [Example 666] | 25 |
| COc1cc(Oc2nc(-c3ccc(NS(=O)(=O)c4cc(C)ccc4C#N)cc3)cc3[nH]nc(C)c23)ccn1 [Example 667] | 11 |
| COc1cc(Oc2nc(-c3ccc(NS(=O)(=O)c4cc(Cl)ccc4Cl)cc3)cc3[nH]nc(C)c23)ccn1 [Example 669] | 31 |
| COc1ccc(Cl)c(S(=O)(=O)Nc2ccc(-c3cc4[nH]nc(C)c4c(Oc4ccnc(OC)c4)n3)cc2)c1 [Example 670] | 25 |
| CCOc1nc(-c2ccc(NS(=O)(=O)c3cc(OC)ccc3Cl)cc2)cc2[nH]nc(C)c12 [Example 675] | 15 |
| CCOc1nc(-c2ccc(NS(=O)(=O)c3cc(Cl)ccc3F)cc2)cc2[nH]nc(C)c12 [Example 676] | 23 |
| Cc1ccc(F)c(S(=O)(=O)Nc2ccc(-c3cc4[nH]nc(C)c4c(OCCC(=O)N(C)C)n3)cc2)c1 [Example 686] | 11 |
| Cc1n[nH]c2cc(-c3ccc(NS(=O)(=O)c4cc(Cl)ccc4F)cc3)nc(OCCC(=O)N(C)C)c12 [Example 687] | 15 |
| COc1ccc(Cl)c(S(=O)(=O)Nc2ccc(-c3cc4[nH]nc(C)c4c(OCCC(=O)N(C)C)n3)cc2)c1 [Example 689] | 13 |
| COc1ccc(F)c(S(=O)(=O)Nc2ccc(-c3cc4[nH]nc(C)c4c(OCCC(=O)N(C)C)n3)cc2)c1 [Example 692] | 6.5 |
| Cc1n[nH]c2cc(-c3ccc(NS(=O)(=O)c4cc(Cl)ccc4F)cc3)nc(Oc3ccc(N(C)C)nc3)c12 [Example 694] | 25 |
| COc1ccc(Cl)c(S(=O)(=O)Nc2ccc(-c3cc4[nH]nc(C)c4c(Oc4ccc(N(C)C)nc4)n3)cc2)c1 [Example 699] | 25 |

same assay, conditions: read-out: IC50 values for inhibition of SGK-1 enzymatic activity, peptide substrate 1 μM, ATP 10 μM, 60 min at 37° C.

| Structure (SMILES) | IC50 [nM] |
| --- | --- |
| O=S(=O)(Nc1ccc(-c2nc(-c3cccnc3)c3cn[nH]c3n2)cc1)c1cc(Cl)ccc1Cl [Example 5, 2,5-Dichloro-N-[4-(4-pyridin-3-yl-1H-pyrazolo[3,4-d]pyrimidin-6-yl)-phenyl]-benzenesulfonamide] | < 1.2 |
| COc1nc(-c2ccc(NS(=O)(=O)c3cc(Cl)ccc3F)cc2)nc2[nH]nc(N)c12 [Example 7, N-[4-(3-Amino-4-methoxy-1H-pyrazolo[3,4-d]pyrimidin-6-yl)-phenyl]-5-chloro-2-fluoro-benzenesulfonamide] | < 1.5 |
| Nc1n[nH]c2nc(-c3ccc(NS(=O)(=O)c4cc(Cl)c(F)cc4F)cc3)nc(C3CC3)c12 [Example 448, N-[4-(3-Amino-4-cyclopropyl-1H-pyrazolo[3,4-d]pyrimidin-6-yl)phenyl]-5-chloro-2,4-difluoro-benzenesulfonamide] | < 1.5 |

tested on: SGK-1 dependent phosphorylation of GSK3beta in U2OS cells; test: SGK-1 dependent phosphorylation of GSK3beta in U2OS cells overexpressing recombinant SGK-1 and GSK3beta; assay type: cell-based, human; conditions: Homo sapiens; U2OS cells, 6 h incubation, ratio of phosphorylated GSK3beta to total GSK3beta; read-out: IC50 values for inhibition of SGK-1 dependent phosphorylation of GSK3beta in U2OS cells
Protocol: B) Determination of the Effect on SGK-1 Dependent Phosphorylation of GSK3beta in U2OS Cells
U2OS cells were cultured in 1:1 Dulbecco modified Eagle medium/Ham's F12 and 10% heat-inactivated fetal calf serum (FCS Gold) at 37° C., 7% CO2 and 95% relative humidity. […] Cell suspension mixed with BacMam viruses was seeded in 96 well pCLEAR plates (Greiner) at 3×10^4 cells per well in 250 μl medium. […] 1 μl of a solution of the test compound at 250×final concentration was added. Cells are incubated at 37° C., 7% CO2 and 95% relative humidity. […] After removing the fixation solution, cells were permeabilised by adding 200 μl PBT (0.2% Triton X-100 in PBS) per well for 5 min. After removing PBT, cells were blocked by adding 200 μl of blocking solution (1% bovine serum albumine in PBS) per well. Blocking solution was removed and 50 μl of primary antibody (rabbit anti-phospho-GSK-3beta (Ser9), and mouse anti-GSK-3beta) were added for 1 h. […] After washing the cells 3 times with PBS, 200 μl of PBS were added. Fluorescence signals were measured with the ImageXpress MICRO (Molecular Devices).

| IC50 [nM] | Structure (SMILES) |
| --- | --- |
| 2600 | Cc1nc(-c2ccc(NS(=O)(=O)c3cc(Cl)ccc3F)cc2)nc2[nH]ncc12 [Example 6, 5-Chloro-2-fluoro-N-[4-(4-methyl-1H-pyrazolo[3,4-d]pyrimidin-6-yl)-phenyl]-benzenesulfonamide] |
